Reference: patent US8658685B2, “Methods for treatment of kallikrein-related disorders” (Activesite Pharmaceuticals, Inc., priority 2008, dated 2014)

Experiments:
astrocytes [1] = assay: Plasma kallikrein binding to astrocytes; type: cell-based
Description: (§1) We have also studied the effects of plasma kallikrein pathway activation on astrocytes. […] Exposure of astrocytes to plasma kallikrein potently stimulated ERK phosphorylation, and this action of kallikrein on astrocytes is not affected by B2-R antagonism (Hoe140). The effect of kallikrein on astrocytes was blocked by leupeptin, a protease inhibitor and C1-INH (data not shown). […] This is in contrast to the bradykinin effect, which is rapid and transient (data not shown). Plasma kallikrein's effect on ERK phosphorylation in astrocytes is dose dependent, reaching a maximal effect at 100 nM kallikrein (data not shown). […] In addition, plasma kallikrein binding to astrocytes was blocked by AS-440 (FIG. 9B) and C1-INH (data not shown).

Thrombin = Thrombin (Homo sapiens, UniProt P00734); assay: Inhibitor profile of ASP-440: Thrombin; type: biochemical
[2] = biological target: T1, endogenous PK in human plasma (Homo sapiens, UniProt P03952); assay: Inhibition of endogenous PK in human plasma; type: biochemical; details: read-out: Kiapp
T1 construct: from tissue; host or cells: human plasma

Factor Xa = Factor Xa (Homo sapiens, UniProt P00742); assay: Inhibitor profile of ASP-440: Factor Xa; type: biochemical
[3] = tested on: intrinsic coagulation pathway; assay: Plasma coagulation time, activation with Actin FS reagent; type: biochemical; details: at 10 μM; plasma activated with Actin FS reagent
[4] = biological target: Porcine Pancreatic Kallikrein (Sus scrofa, UniProt P00752); assay: Inhibitor profile of ASP-440: Porcine Pancreatic Kallikrein; type: biochemical
[5] = tested on: recombinant tissue factor; assay: Plasma coagulation time, activation with Innovin reagent; type: biochemical; details: plasma activated by Innovin reagent; concentrations up to 30 μM
[6] = tested on: AngII-induced retinal vascular permeability; assay: AngII-induced retinal vascular permeability in rats; type: in vivo, rat
Procedure: Rats were implanted with a single subcutaneous osmotic pump containing Ang II or two pumps containing AngII and ASP-465, as indicated. RVP was measured using vitreous fluorophotometry after 3 days.
RVP was measured using Evan's blue dye method after 7 days.
We examined the effect of the kallikrein inhibitor ASP-465 on RVP induced by angiotensin II (AngII).

Factor XIa = Factor XIa (Homo sapiens, UniProt P03951); assay: Inhibitor profile of ASP-440: Factor XIa; type: biochemical
[7] = biological target: T2, endogenous PK in rat plasma (Rattus norvegicus, UniProt P14272); assay: Inhibition of endogenous PK in rat plasma; type: biochemical; details: read-out: Kiapp
T2 construct: from tissue; host or cells: rat plasma

Factor XIIa = biological target: T3, Factor XIIa (Homo sapiens, UniProt P00748); assay: Inhibitor profile of ASP-440: Factor XIIa; type: biochemical
T3 sequence (P00748 373-615 limits assumed): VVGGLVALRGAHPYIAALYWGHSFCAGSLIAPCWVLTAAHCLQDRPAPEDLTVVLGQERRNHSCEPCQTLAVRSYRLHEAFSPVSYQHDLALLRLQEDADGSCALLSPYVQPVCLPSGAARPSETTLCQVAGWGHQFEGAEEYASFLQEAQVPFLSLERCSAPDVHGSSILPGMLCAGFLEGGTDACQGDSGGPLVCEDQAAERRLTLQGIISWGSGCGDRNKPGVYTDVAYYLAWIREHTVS

blood-induced hematoma = assay: Hematoma after intracerebral infusion of autologous blood in diabetic rats; type: in vivo, Sprague-Dawley rats; details: systemic treatment, 48 h after intracerebral infusion of autologous blood
Procedure: We have compared the response to intracerebral infusion of blood in Sprague-Dawley rats with 1 mo of STZ-induced diabetes with age matched non-diabetic control rats. Fifty μL of autologous whole blood was collected from the tail vein and immediately infused 1 mm anterior, 4 mm lateral and 6 mm in depth to the bregma using a 30 gauge needle at 20 μL per minute. The infusion needle was removed 10 min after injection and the burr hole was sealed with bone wax. Forty-eight hours after intracerebral injection, the animals were perfused with saline and surface hematoma area was examined by measurement of hematoma area relative to total hemisphere area.

[8] = tested on: plasma kallikrein-induced hematoma; assay: Hematoma after intracerebral injection of purified activated plasma kallikrein in diabetic rats; type: in vivo, rat; details: 2 hrs following plasma kallikrein injection, 24 hrs pretreatment via subcutaneous osmotic pump
Description: The increased response of diabetic rats to the model of intracerebral hemorrhage described above could be due to factors within the blood or due to an increased response in the neurovascular tissue. To evaluate the latter, we performed intracerebral injections of purified activated plasma kallikrein in rats with 1 mo of STZ-induced diabetes or age-matched non-diabetic controls. The contralateral hemisphere was subjected to an equivalent injection with saline vehicle. […]

[9] = tested on: ischemia-induced cerebral vascular permeability and infarct; assay: Middle cerebral artery occlusion (MCAO) in rats with 4 weeks of STZ-induced diabetes; type: in vivo, rat; details: vs diabetic rats receiving vehicle
Procedure: Rats were implanted with a single subcutaneous osmotic pump containing ASP-440, as indicated. Cerebral vascular permeability was measured using Evan's blue dye method 2 hours after occlusion.
Infarct area was measured using Triphenyltetrazolium chloride stain after 24 hours of permanent occlusion.
The effect of diabetes on cerebral vascular permeability induced by ischemia was examined in rats subjected to middle cerebral artery occlusion (MCAO). […] Cerebral vascular permeability following MCAO was increased in the diabetic rats compared with nondiabetic rats (FIG. 14). […] MCAO-induced infarct area is increased in rats with 4 weeks of diabetes compare with nondiabetic rats (FIG. 15).

Plasmin = Plasmin (Homo sapiens, UniProt P00747); assay: Inhibitor profile of ASP-440: Plasmin; type: biochemical
astrocytes [10] = assay: Plasma kallikrein-induced ERK phosphorylation in astrocytes; type: cell-based; details: astrocytes exposed to plasma kallikrein
Description: as §1

[11] = tested on: diabetes-induced retinal vascular permeability; assay: Diabetes-induced retinal vascular permeability in rats; type: in vivo, rat; details: STZ-induced diabetes, 28 days; subcutaneous osmotic pump; Evan's blue dye method
[12] = biological target: purified human plasma kallikrein (PK) (Homo sapiens, UniProt P03952); assay: Inhibitor profile of ASP-440: plasma kallikrein; type: biochemical
[13] = biological target: Tissue Factor-Factor VIIa (Homo sapiens, UniProt P08709); assay: Inhibitor profile of ASP-440: Tissue Factor-Factor VIIa; type: biochemical
Factor IXa = Factor IXa (Homo sapiens, UniProt P00740); assay: Inhibitor profile of ASP-440: Factor IXa; type: biochemical
bradykinin-induced RVP = assay: Bradykinin-induced RVP in rats (vitreous fluorophotometry); type: in vivo; details: pretreatment 2 days, 12 ug/day/200 g rat, subcutaneous Alzet pump
Description: FIGS. 3A-3B are a set of two bar graphs that show the effects of intravitreal injection of kallikrein (FIG. 3A) and bradykinin (FIG. 3B) on RVP in rats measured using vitreous fluorophotometry. Activators of the kallikrein pathway, including purified activated plasma kallikrein, factor XII (FXII), high molecular weight kininogen (HK), and bradykinin, increase retinal vascular permeability (RVP) to fluorescein. In addition, inhibitors of the kallikrein pathway, such as complement I inhibitors and α2-macroglobulin reduced RVP. Direct injection of these kallikrein pathway activators into the vitreous was observed by SLO fundus imaging of the leakage from first phase fluorescein following bolus intravenous injection (FIG. 2) and by vitreous fluorophotometry, which measure the levels of fluorescein in the vitreous 30 min after intravenous injection (FIG. 5A). […] In addition, intravitreal injection of bradykinin can acutely increase RVP (FIGS. 2A and 2B). Moreover, pretreatment of rats for 2 days with Hoe140 (Bradykinin R2 antagonist, 12 ug/day/200 g rat delivered using a subcutaneous Alzet pump) inhibited bradykinin-induced RVP (FIG. 3B).

brain astrocytes = assay: Bradykinin-induced ERK phosphorylation in brain astrocytes; type: cell-based
Description: as §1

Porcine Pancreatic Kallikrein, sequence (P00752 8-246): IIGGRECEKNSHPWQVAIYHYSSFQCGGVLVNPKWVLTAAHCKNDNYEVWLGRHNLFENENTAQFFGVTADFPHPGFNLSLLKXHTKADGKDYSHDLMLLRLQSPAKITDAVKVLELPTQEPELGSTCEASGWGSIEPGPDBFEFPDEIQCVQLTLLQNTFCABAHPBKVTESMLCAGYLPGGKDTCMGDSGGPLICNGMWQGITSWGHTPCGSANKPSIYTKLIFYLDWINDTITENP
Plasmin, sequence (P00747 581-810 limits assumed, species assumed): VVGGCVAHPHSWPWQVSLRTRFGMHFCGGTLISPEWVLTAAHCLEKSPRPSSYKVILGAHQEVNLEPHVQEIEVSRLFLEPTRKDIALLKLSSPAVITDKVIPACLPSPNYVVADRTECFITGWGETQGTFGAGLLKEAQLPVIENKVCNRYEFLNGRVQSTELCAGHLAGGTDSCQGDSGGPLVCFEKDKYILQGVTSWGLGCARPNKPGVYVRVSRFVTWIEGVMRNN
Plasmin, sequence (P00747 97-580 partner limits assumed, species assumed): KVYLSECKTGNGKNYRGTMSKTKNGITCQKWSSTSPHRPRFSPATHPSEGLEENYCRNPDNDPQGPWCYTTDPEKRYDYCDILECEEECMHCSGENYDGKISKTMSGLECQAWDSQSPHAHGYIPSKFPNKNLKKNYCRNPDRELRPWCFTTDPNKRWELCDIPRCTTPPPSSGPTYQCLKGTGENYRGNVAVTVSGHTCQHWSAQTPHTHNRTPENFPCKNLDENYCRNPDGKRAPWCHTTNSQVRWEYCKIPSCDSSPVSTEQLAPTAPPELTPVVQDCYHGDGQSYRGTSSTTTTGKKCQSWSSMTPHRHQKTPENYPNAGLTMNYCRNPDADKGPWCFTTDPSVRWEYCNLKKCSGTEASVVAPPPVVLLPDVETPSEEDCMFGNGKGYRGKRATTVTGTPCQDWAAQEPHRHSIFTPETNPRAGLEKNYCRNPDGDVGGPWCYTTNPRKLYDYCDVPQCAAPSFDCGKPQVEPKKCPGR
Factor Xa, sequence (P00742 235-488 limits assumed): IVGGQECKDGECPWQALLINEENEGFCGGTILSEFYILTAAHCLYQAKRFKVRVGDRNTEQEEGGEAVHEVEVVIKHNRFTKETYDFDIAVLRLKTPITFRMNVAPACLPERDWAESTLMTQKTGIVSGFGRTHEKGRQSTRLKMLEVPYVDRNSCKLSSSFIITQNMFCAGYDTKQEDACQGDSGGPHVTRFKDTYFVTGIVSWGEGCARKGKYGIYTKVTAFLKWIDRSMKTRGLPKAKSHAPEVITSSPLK
Factor Xa, sequence (P00742 41-179 partner limits assumed): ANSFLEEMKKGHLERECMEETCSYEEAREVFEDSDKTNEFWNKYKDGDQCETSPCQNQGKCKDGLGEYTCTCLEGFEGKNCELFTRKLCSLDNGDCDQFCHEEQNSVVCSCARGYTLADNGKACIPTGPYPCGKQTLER
Factor XIa, sequence (P03951 388-625 limits assumed): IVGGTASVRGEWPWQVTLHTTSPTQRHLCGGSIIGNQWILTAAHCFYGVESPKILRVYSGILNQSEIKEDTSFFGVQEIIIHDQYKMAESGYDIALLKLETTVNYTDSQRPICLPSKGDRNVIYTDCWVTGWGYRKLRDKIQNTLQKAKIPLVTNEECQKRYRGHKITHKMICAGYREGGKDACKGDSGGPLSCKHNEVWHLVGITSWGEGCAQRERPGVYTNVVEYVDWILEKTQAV
Factor XIa, sequence (P03951 19-387 partner limits assumed): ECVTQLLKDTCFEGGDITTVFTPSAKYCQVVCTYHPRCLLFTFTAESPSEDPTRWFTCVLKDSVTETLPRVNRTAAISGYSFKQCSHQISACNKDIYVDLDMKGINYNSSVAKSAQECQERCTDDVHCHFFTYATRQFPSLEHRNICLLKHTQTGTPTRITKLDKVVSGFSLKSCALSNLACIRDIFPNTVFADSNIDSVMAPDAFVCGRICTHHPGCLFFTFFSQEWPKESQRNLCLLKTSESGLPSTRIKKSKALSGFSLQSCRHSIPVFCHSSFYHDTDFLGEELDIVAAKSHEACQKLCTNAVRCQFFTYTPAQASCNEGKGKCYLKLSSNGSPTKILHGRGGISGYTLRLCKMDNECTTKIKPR
Tissue Factor-Factor VIIa, sequence (P08709 213-466 limits assumed): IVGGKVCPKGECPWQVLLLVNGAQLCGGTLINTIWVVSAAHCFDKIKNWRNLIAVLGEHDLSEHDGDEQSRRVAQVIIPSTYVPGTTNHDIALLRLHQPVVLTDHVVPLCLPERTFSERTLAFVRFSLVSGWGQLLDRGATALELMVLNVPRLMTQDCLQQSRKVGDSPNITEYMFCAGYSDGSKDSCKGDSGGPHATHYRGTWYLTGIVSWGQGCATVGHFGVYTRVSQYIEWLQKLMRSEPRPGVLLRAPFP
Tissue Factor-Factor VIIa, sequence (P08709 61-212 partner limits assumed): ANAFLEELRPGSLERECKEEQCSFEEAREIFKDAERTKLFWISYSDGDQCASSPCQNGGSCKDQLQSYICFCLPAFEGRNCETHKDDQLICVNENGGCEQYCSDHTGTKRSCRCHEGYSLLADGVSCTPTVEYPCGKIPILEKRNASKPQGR
Tissue Factor-Factor VIIa, sequence (P13726 33-295 partner): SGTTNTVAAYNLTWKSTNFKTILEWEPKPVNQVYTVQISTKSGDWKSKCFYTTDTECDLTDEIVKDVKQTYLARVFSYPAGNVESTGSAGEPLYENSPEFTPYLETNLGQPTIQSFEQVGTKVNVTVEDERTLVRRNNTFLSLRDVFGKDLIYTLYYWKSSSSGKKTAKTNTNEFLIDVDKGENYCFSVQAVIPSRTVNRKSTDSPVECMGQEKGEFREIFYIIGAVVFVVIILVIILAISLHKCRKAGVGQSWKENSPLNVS
purified human plasma kallikrein (PK), sequence (P03952 20-638): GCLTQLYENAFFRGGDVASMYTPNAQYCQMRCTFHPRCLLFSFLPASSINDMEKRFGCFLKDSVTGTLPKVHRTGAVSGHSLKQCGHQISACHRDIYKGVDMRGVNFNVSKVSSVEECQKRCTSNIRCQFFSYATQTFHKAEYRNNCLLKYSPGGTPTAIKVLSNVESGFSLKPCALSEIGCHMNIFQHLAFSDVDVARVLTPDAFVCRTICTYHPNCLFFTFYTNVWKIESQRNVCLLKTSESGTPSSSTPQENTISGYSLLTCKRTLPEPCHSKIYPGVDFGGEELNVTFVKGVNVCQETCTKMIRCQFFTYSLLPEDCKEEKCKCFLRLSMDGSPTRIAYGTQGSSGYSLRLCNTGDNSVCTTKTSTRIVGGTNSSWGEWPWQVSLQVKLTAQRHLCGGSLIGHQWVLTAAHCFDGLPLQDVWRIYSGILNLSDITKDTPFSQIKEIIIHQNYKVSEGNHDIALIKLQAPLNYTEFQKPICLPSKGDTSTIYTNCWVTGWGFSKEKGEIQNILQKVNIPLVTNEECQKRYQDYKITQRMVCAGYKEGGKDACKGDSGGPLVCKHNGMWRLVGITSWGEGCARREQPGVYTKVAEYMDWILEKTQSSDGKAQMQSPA
Factor IXa, sequence (P00740 227-461 limits assumed): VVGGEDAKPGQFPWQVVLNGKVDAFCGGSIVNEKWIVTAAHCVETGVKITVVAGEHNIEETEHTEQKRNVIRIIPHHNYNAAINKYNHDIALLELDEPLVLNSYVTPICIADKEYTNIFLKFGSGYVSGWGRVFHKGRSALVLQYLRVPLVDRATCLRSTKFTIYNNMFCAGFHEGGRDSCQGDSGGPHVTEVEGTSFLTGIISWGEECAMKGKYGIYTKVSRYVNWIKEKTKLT
Factor IXa, sequence (P00740 47-191 partner limits assumed): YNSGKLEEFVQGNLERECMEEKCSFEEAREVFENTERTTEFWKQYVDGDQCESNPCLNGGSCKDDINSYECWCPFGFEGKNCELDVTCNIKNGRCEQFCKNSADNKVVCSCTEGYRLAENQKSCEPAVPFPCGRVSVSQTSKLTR
T2 sequence (P14272 20-638): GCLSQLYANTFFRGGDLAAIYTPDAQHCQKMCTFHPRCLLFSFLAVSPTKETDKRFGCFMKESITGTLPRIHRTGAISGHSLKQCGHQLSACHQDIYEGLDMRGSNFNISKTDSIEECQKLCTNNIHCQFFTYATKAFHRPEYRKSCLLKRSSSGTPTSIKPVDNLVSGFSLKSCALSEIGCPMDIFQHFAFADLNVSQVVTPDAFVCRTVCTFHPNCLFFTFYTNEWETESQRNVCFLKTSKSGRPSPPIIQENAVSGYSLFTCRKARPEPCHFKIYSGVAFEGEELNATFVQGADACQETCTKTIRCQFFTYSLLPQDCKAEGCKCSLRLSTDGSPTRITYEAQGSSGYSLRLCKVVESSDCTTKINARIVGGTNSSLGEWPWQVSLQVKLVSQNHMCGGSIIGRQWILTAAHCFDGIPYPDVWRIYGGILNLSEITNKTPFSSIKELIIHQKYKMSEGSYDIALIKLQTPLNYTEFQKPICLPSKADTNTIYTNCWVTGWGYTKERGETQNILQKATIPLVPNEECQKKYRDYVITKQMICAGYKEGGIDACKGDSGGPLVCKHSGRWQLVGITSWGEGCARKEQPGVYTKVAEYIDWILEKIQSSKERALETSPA
T1 sequence (P03952 20-638): as the sequence (P03952 20-638) above

## N=C(N)c1ccc(CNC(=O)c2cnn(Cc3ccccc3)c2)cc1 [ASP-440, 1-Benzyl-1H-pyrazole-4-carboxylic acid 4-carbamimidoyl-benzylamide]
Astrocytes [1]
  plasma kallikrein binding to astrocytes: blocked
Thrombin; Thrombin
  Ki: 110 µM
Thrombin; predicted inhibition at 1 μM
  inhibition at 1 µM: 1%
Thrombin; predicted inhibition at 10 μM
  inhibition at 10 µM: 9%
[2]
  Ki: 0.2 µM
Factor Xa; Factor Xa
  Ki: 85 µM
Factor Xa; predicted inhibition at 1 μM
  inhibition at 1 µM: 0%
Factor Xa; predicted inhibition at 10 μM
  inhibition at 10 µM: 11%
[3]
  prolongation of coagulation time in plasma: ~50%
[4]; Porcine Pancreatic Kallikrein
  Ki: > 100 µM
[4]; predicted inhibition at 1 μM
  inhibition at 1 µM: 0%
[4]; predicted inhibition at 10 μM
  inhibition at 10 µM: 0%
[5]
  effect on coagulation time: without measurable effect
[6]; AngII and ASP-440 via 2 Alzet pumps for 7 days, Evan's blue dye method
  RVP: normal levels of RVP
Factor XIa; Factor XIa
  Ki: 120 µM
Factor XIa; predicted inhibition at 1 μM
  inhibition at 1 µM: 0%
Factor XIa; predicted inhibition at 10 μM
  inhibition at 10 µM: 7%
[7]
  Ki: 0.4 µM
Factor XIIa; Factor XIIa
  Ki: > 100 µM
Factor XIIa; predicted inhibition at 1 μM
  inhibition at 1 µM: 0%
Factor XIIa; predicted inhibition at 10 μM
  inhibition at 10 µM: 1%
blood-induced hematoma
  hematoma area: reduced hematoma area in diabetic rats to a level comparable to that observed in non-diabetic controls
[8]
  hematoma response: decreased
[9]; 3 days pretreatment via subcutaneous osmotic pump, MCAO for 2 hrs
  reduction of cerebral vascular permeability: about 50%
[9]; treatment 3 days prior to MCAO, 24 hours of permanent occlusion
  decrease of infarct area: about 40%
Plasmin; Plasmin
  Ki: 16 µM
Plasmin; predicted inhibition at 1 μM
  inhibition at 1 µM: 6%
Plasmin; predicted inhibition at 10 μM
  inhibition at 10 µM: 38%
Astrocytes [10]
  effect of kallikrein on ERK phosphorylation: blocked
[11]
  RVP: normal levels of RVP
[12]; PlasmaKallikrein
  Ki: 0.1 µM
[12]; predicted inhibition at 1 μM
  inhibition at 1 µM: 91%
[12]; predicted inhibition at 10 μM
  inhibition at 10 µM: 99%
[12]; purified human plasma kallikrein
  mode of inhibition: competitive and reversible
[13]; Tissue Factor-Factor VIIa
  Ki: 160 µM
[13]; predicted inhibition at 1 μM
  inhibition at 1 µM: 0%
[13]; predicted inhibition at 10 μM
  inhibition at 10 µM: 6%
Factor IXa; Factor IXa
  Ki: > 100 µM
Factor IXa; predicted inhibition at 1 μM
  inhibition at 1 µM: 0%
Factor IXa; predicted inhibition at 10 μM
  inhibition at 10 µM: 0%

## Cc1cc(C(=O)NCc2ccc(C(=N)N)cc2)c(C)n1Cc1ccncc1 [ASP-465, 2,5-Dimethyl-1-pyridin-4-ylmethyl-1H-pyrrole-3-carboxylic acid 4-carbamimidoyl-benzylamide]
[6]; AngII and ASP-465 via 2 Alzet pumps for 3 days, vitreous fluorophotometry
  RVP: normal levels of RVP

## C1-INH: C1-Esterase inhibitor, a serpin; major inhibitor of the classical complement pathway, contact activation system and intrinsic coagulation
Astrocytes [1]
  plasma kallikrein binding to astrocytes: blocked
Astrocytes [10]
  effect of kallikrein on ERK phosphorylation: blocked

## Hoe140 [reference compound]
blood-induced hematoma
  hematoma area: did not reduce
bradykinin-induced RVP
  bradykinin-induced RVP: inhibited
Brain astrocytes
  bradykinin-induced ERK phosphorylation: blocked
Astrocytes [10]
  effect of kallikrein on ERK phosphorylation: not affected
